{"source": "patent US9102932B2", "about": "“Orthogonal translation components for the in vivo incorporation of unnatural amino acids” (The Scripps Research Institute, priority 2004, dated 2015)", "molecules": {"B1": {"name": "clone 3H11 (protein)", "chain": "MEEQYRPEEIESKVQLHWDEKRTFEVTEDESKEKYYCLSWSPYPSGRLHMGHVRNYTIGDVIARYQRMLGKNVLQPIGWDAFGLPAEGAAVKNNTAPAPWTYDNIAYMKNQLKMLGFGYDWSRELATCTPEYYRWEQKFFTELYKKGLVYKKTSAVNWCPNDQTVLANEQVIDGCCWRCDTKVERKEIPQWFIKITAYADELLNDLDKLDHWPDTVKTMQRNWIGRSEGVEITFNVNDYDNTLTVYTTRPDTFMGCTYLAVAAGHPLAQKAAENNPELAAFIDECRNTKVAEAEMATMEKKGVDTGFKAVHPLTGEEIPVWAANFVLMEYGTGAVMAVPGHDQRDYEFASKYGLNIKPVILAADGSEPDLSQQALTEKGVLFNSGEFNGLDHEAAFNAIADKLTAMGVGERKVNYRLRDWGVSRQRYWGAPIPMVTLEDGTVMPTPDDQLPVILPEDVVMDGITSPIKADPEWAKTTVNGMPALRETDTFDTFMESCWIYARYTCPQYKEGMLDSEAANYWLPVDIAIGGIEHAIMGLLYFRFFHKLMRDAGMVNSDEPAKQLLCQGMVLADAFYYVGENGERNWVSPVDAIVERDEKGRIVKAKDAAGHELVYTGMSKMSKSKNNGIDPQVMVERYGADTVRLFMMFASPADMTLEWQESGVEGANRFLKRVWKLVYEHTAKGDVAALNVDALTENQKALRRDVHKTIAKVTDDIGRRQTFNTAIAAIMELMNKLAKAPTDGEQDRALMQEALLAVVRMLNPFTPHICFTLWQELKGEGDIDNAPWPVADEKAMVEDSTLVVVQVNGKVRAKITVPVDATEEQVRERAGQEHLVAKYLDGVTVRKVIYVPGKLLNLVVG", "modifications": "o-nitrobenzylcysteine aminoacyl-tRNA synthetase"}}, "key": {"[1]": {"assay": "Photodecaging of O-(2-nitrobenzyl)-L-tyrosine by irradiation at 365 nm, LC/MS", "format": "physicochemical", "description": "FIG. 9 provides concentration curve assays illustrating the experimentally observed photodecaging (photoactivation) of the caged tyrosine molecule O-(2-nitrobenzyl)-L-tyrosine. Photodecaging of O-(2-nitrobenzyl)-L-tyrosine was illustrated by irradiation of a 0.2 mM amino acid solution in water using a handheld UV lamp (365 nm at 10 mm distance). Aliquots were taken at specific time points and analyzed by LC/MS. The concentrations of O-(2-nitrobenzyl)-L-tyrosine (squares) and the corresponding decaged species (circles) are shown.\nIrradiation of O-(2-nitrobenzyl)-L-tyrosine (synthesized from L-tyrosine as described in Miller et al., Neuron 1998, 20, 619) at 365 nm induces cleavage of the benzylic CO-bond and rapid formation of the decaged amino acid (t1/2=4 min, see supporting information), as illustrated schematically in FIG. 8.\nPhotodecaging of O-(2-nitrobenzyl)-L-tyrosine can be experimentally observed, as illustrated in the experimental results shown in FIG. 9. As shown in this figure, the photodecaging of O-(2-nitrobenzyl)-L-tyrosine was studied by irradiation of a 0.2 mM solution in water (one well of a six-well plate) using a handheld UV lamp (365 nm at 10 mm distance). Aliquots were taken at specific time points and analyzed by LC/MS. 50% decaging was achieved after approximately four minutes."}, "[2]": {"test_system": "Z domain protein gene with amber codon at seventh position", "assay": "Expression of amber mutant Z domain protein with unnatural amino acid, SDS-PAGE and MALDI-TOF MS", "format": "cell-based, E. coli", "description": "To confirm that the observed phenotype is caused by the site-specific incorporation of p-ethylthiocarbonyl-L-phenylalanine by the mutRNACUA-mutTyrRS pair, an amber codon was substituted for the seventh position (Tyr) in the gene encoding the Z domain protein (Nilsson et al., Protein Eng. 1987, 1, 107-113) fused to a C-terminal His6 tag. Protein was expressed in the presence or absence of 1 mM p-ethylthiocarbonyl-L-phenylalanine and purified by Ni-NTA chromatography. […]\nAdditional evidence for the site specific incorporation of p-ethylthiocarbonyl-L-phenylalanine was obtained by matrix-assisted laser desorption/ionization time-of-flight mass spectrometry (MALDI-TOF MS). In addition to the observation of an experimental average mass of 8006 Da for the intact Tyr p-ethylthiocarbonyl-L-phenylalanine protein (MTheoretical=8002 Da, see, FIG. 16), a minor peak corresponding to the mutant protein without the first methionine moiety in acetylated form (MExperimental=7913 Da vs. MTheoretical=7913 Da) and a major peak corresponding to the mutant protein without the first methionine moiety (MExperimental=7871 Da vs. MTheoretical=7871 Da) were also detected (FIG. 16). Another major peak of 7828 Da was present that corresponds to Z domain protein containing a free carboxylic acid group instead of a thioester moiety at position 7, which has a calculated mass of 7827 Da in its protonated form. […]"}, "[3]": {"test_system": "human superoxide dismutase bearing amber codon at position 33 (hSOD-33TAG-His6)", "assay": "Expression of hSOD-33TAG-His6 in yeast with mutant E. coli leucyl-tRNA synthetases, SDS-PAGE", "format": "cell-based", "conditions": "yeast host cells", "text": "To increase hydrolytic activity towards leucine, residues T252 and V338 in the E. coli synthetase editing domain were exchanged to alanine by Quikchange mutagenesis in order to enlarge the binding pocket (see, FIG. 6A). […] High selectivity of this mutant was further confirmed by MALDI TOF MS of hSOD-33TAG-His6.\nTo evolve a more efficient oNBS translation system, the selected clone 3H11 synthetase was diversified by error prone PCR, again using three different mutagenicities, to introduce one, two or five mutations per gene, yielding an overall diversity of 1×10^7 clones. The positions in the leucyl-tRNA-synthetase enzyme that were targeted for randomization were M40, L41, Y499, Y527 and H537. The protocols used herein follow the general methodologies described in the art, e.g., Wu et al., Journal of the American Chemical Society 126:14306-14307 (2004); and International Application No. PCT/US 2005/034002, filed Sep. 21, 2005, by Deiters et al.\nSequencing of the G2-6 clone identified five additional mutations throughout the enzyme in comparison to the initial 3H11 synthetase starting material (positions S31G, T247A, T248S, M617I and V673A). Additional mutations (caused during library construction) found in all clones throughout the library were also observed as follows: H67R, N196T, R262A and S497C. […]"}}, "data": [{"molecule": "N[C@@H](Cc1ccc(OCc2ccccc2[N+](=O)[O-])cc1)C(=O)O", "note": "[O-(2-nitrobenzyl)-L-tyrosine]", "values": [{"measurement": "Decaging", "setting": "[1]; after approximately four minutes, 0.2 mM solution in water, handheld UV lamp 365 nm at 10 mm distance", "result": 50, "unit": "%"}, {"measurement": "half-life at 0.2 mM", "setting": "[1]; solution in water under UV irradiation (365 nm), irradiation at 365 nm, read-out: t1/2 of formation of the decaged amino acid", "result": 4, "unit": "min"}]}, {"molecule": "CC(=O)CC(=O)c1ccc(C[C@H](N)C(=O)O)cc1", "note": "[p-(3-oxobutanoyl)-L-phenylalanine]", "values": [{"measurement": "Fidelity for the incorporation", "setting": "[2]; MALDI-TOF MS, signal-to-noise ratio >400, evolved mutRNACUA^Tyr-mutTyrRS pair", "result": "> 99", "unit": "%"}, {"measurement": "Incorporation efficiency compared to tyrosine", "setting": "[2]; Z domain protein, seventh position, 1 mM unnatural amino acid, SDS-PAGE", "result": "around 30%"}]}, {"molecule": "B1", "values": [{"measurement": "oNBS incorporation efficiency compared to an oNBC amino acid (in words)", "setting": "[3]", "result": "twofold reduced efficiency"}]}]}
